The CheMixHub ionic liquid set
Values joined by “and” are separate entries in the source; they are usually repeats but may differ in a detail not shown here. Equal entries are not always repeated.

Assay: xn = mol fraction of the nth substance listed

CCCC[n+]1ccn(C)c1.F[B-](F)(F)F + CCCC[n+]1ccn(C)c1.F[P-](F)(F)(F)(F)F
101 kPa, x2 = 0
Details | viscosity [mPa·s]
299.15 K | 101.9
301.15 K | 92
303.15 K | 83.4

CC(=O)[O-].CCCC[n+]1ccn(C)c1 + CCCC[n+]1ccn(C)c1.O=S(=O)([N-]S(=O)(=O)C(F)(F)F)C(F)(F)F
101 kPa
Details | electrical conductivity [S/m] | viscosity
283.15 K, x2 = 0 | 0.0145 | 1815 mPa·s
283.15 K, x2 = 0.1057 | 0.0213 | 1212 mPa·s
283.15 K, x2 = 0.3662 | 0.0403 | 565 mPa·s
298.15 K, x2 = 0.8097 | 0.28 | 73 mPa·s
303.15 K, x1 = 0.5001 | – | 100 mPa·s
303.15 K, x1 = 0.7497 | – | 161.5 mPa·s
313.15 K, x2 = 0 | 0.138 | 154 mPa·s
313.15 K, x2 = 0.1057 | 0.168 | 128 mPa·s
313.15 K, x2 = 0.3662 | 0.236 | 82 mPa·s
313.15 K, x2 = 0.6541 | 0.387 | 49.4 mPa·s
313.15 K, x2 = 0.8097 | 0.504 | 38.2 mPa·s
314.3 K, x2 = 0 | – | 126 mPa·s and 138 mPa·s
314.3 K, x2 = 0.7282 | 0.474 | 39.2 mPa·s
323.15 K, x1 = 0.7497 | – | 56 mPa·s
333.15 K, x2 = 0.1057 | 0.416 | 47.4 mPa·s

CC1CC(=O)O1 (stereo unspecified) + CCCC[n+]1ccn(C)c1.O=S(=O)([N-]S(=O)(=O)C(F)(F)F)C(F)(F)F
electrical conductivity [S/m], 100 kPa, frequency 0.01 MHz
Details | 293.15 K | 298.15 K | 303.15 K | 308.15 K | 313.15 K | 318.15 K | 323.15 K
x2 = 0.0493 | 0.874 | 0.942 | 1.02 | 1.1 | 1.2 | 1.29 | 1.38
x2 = 0.1001 | 1.1 | 1.22 | 1.34 | 1.48 | 1.62 | 1.74 | 1.89
x2 = 0.1526 | 1.21 | 1.34 | 1.49 | 1.64 | 1.8 | 1.94 | 2.12
x2 = 0.2001 | 1.2 | 1.32 | 1.47 | 1.62 | 1.79 | 1.97 | 2.16
x2 = 0.3001 | 1.02 | 1.15 | 1.28 | 1.42 | 1.58 | 1.76 | 1.96
x2 = 0.4013 | 0.782 | 0.883 | 1 | 1.13 | 1.26 | 1.43 | 1.61
x2 = 0.5004 | 0.619 | 0.701 | 0.804 | 0.91 | 1.02 | 1.16 | 1.3
x2 = 0.5995 | 0.505 | 0.58 | 0.67 | 0.754 | 0.857 | 0.976 | 1.1
x2 = 0.6929 | 0.437 | 0.504 | 0.584 | 0.665 | 0.758 | 0.865 | 0.992
x2 = 0.814 | 0.39 | 0.451 | 0.521 | 0.592 | 0.677 | 0.775 | 0.886
x2 = 0.9001 | 0.353 | 0.417 | 0.484 | 0.557 | 0.645 | 0.74 | 0.837

CC1COC(=O)O1 (stereo unspecified) + CCCC[n+]1ccn(C)c1.O=S(=O)([N-]S(=O)(=O)C(F)(F)F)C(F)(F)F
101.3 kPa
Details | viscosity [mPa·s]
293.15 K, x2 = 0.8776 | 51
298.15 K, x2 = 0.1013 | 4.029
298.15 K, x2 = 0.7 | 28.89
303.15 K, x2 = 0.8079 | 29.79
303.15 K, x2 = 0.8776 | 33.75
308.15 K, x2 = 0.1013 | 3.249
308.15 K, x2 = 0.1557 | 4.102
308.15 K, x2 = 0.4128 | 9.65
308.15 K, x2 = 0.5045 | 12.33
313.15 K, x2 = 0.5045 | 10.67
318.15 K, x2 = 0.7 | 15.35
323.15 K, x2 = 0.7 | 13.28
333.15 K, x2 = 0.8776 | 13.61
338.15 K, x2 = 0.3071 | 3.659
348.15 K, x2 = 0 | 1.14
348.15 K, x2 = 0.1557 | 2.025

CCCCCCCCO + CCCC[n+]1ccn(C)c1.O=S(=O)([N-]S(=O)(=O)C(F)(F)F)C(F)(F)F
100 kPa
Details | electrical conductivity, x2 = 0.03335 [S/m] | viscosity, x2 = 0 [mPa·s] | viscosity, x2 = 0.8499 [mPa·s] | viscosity, x2 = 0.8986 [mPa·s]
294.5 K | 0.02 | – | – | –
298 K | – | 7.614 | 37.77 | 40.18

Nc1ccccc1 + CCCC[n+]1ccn(C)c1.O=S(=O)([N-]S(=O)(=O)C(F)(F)F)C(F)(F)F
viscosity [mPa·s], 100 kPa
Details | 288.15 K | 293.15 K | 298.15 K | 303.15 K | 308.15 K | 313.15 K | 318.15 K | 323.15 K | 328.15 K | 333.15 K
x1 = 0.1 | 66.3 | 52.2 | 42.1 | 34.3 | 28.6 | 23.9 | 20.44 | 17.56 | 15.22 | 13.34
x1 = 0.2 | 55.9 | 44.1 | 35.9 | 29.3 | 24.5 | 20.59 | 17.66 | 15.22 | 13.24 | 11.63
x1 = 0.3029 | 46.5 | 36.8 | 30.1 | 24.7 | 20.77 | 17.48 | 15.05 | 13.02 | 11.36 | 10.01
x1 = 0.4013 | 38.5 | 30.6 | 25.1 | 20.73 | 17.48 | 14.76 | 12.76 | 11.06 | 9.68 | 8.56
x1 = 0.5024 | 31.1 | 24.8 | 20.42 | 16.98 | 14.38 | 12.17 | 10.57 | 9.19 | 8.08 | 7.16
x1 = 0.6002 | 24.6 | 19.71 | 16.28 | 13.64 | 11.58 | 9.84 | 8.59 | 7.5 | 6.61 | 5.88
x1 = 0.7 | 18.38 | 14.86 | 12.4 | 10.47 | 8.92 | 7.61 | 6.68 | 5.86 | 5.19 | 4.64
x1 = 0.8002 | 13.46 | 10.93 | 9.22 | 7.8 | 6.71 | 5.77 | 5.09 | 4.5 | 4 | 3.59
x1 = 0.9 | 8.74 | 7.19 | 6.1 | 5.2 | 4.5 | 3.9 | 3.46 | 3.08 | 2.76 | 2.48
x1 = 1 | 5.32 | 4.41 | 3.74 | 3.2 | 2.78 | 2.45 | 2.159 | 1.927 | 1.738 | 1.577

O=C1CCCCO1 + CCCC[n+]1ccn(C)c1.O=S(=O)([N-]S(=O)(=O)C(F)(F)F)C(F)(F)F
100 kPa, frequency 0.01 MHz
Details | electrical conductivity [S/m]
293.15 K, x2 = 0.1504 | 0.602
293.15 K, x2 = 0.4006 | 0.589
293.15 K, x2 = 0.8475 | 0.346
298.15 K, x2 = 0.1004 | 0.428
298.15 K, x2 = 0.4006 | 0.665
298.15 K, x2 = 0.5005 | 0.594
298.15 K, x2 = 0.5999 | 0.484
303.15 K, x2 = 0.1004 | 0.471
303.15 K, x2 = 0.1504 | 0.717
308.15 K, x2 = 0.0532 | 0.209
308.15 K, x2 = 0.1004 | 0.512
308.15 K, x2 = 0.2988 | 0.9
308.15 K, x2 = 0.7214 | 0.609
318.15 K, x2 = 0.1999 | 1.04
323.15 K, x2 = 0.0532 | 0.263
323.15 K, x2 = 0.1504 | 1
323.15 K, x2 = 0.1999 | 1.13
323.15 K, x2 = 0.7214 | 0.895

Nc1ccccc1 + CCCC[n+]1ccn(C)c1.O=S(=O)([O-])C(F)(F)F
Details | viscosity [mPa·s]
323.15 K, 100 kPa, x1 = 1 | 1.927

CCCCOCCO + CCCC[n+]1ccn(C)c1.[Br-]
100 kPa, x2 = 0
Details | viscosity [mPa·s]
298.15 K | 2.79
303.15 K | 2.44
308.15 K | 2.22
313.15 K | 1.98

CCCOCCO + CCCC[n+]1ccn(C)c1.[Br-]
100 kPa, x2 = 0
Details | viscosity [mPa·s]
298.15 K | 2.38
303.15 K | 2.11
308.15 K | 1.88
313.15 K | 1.69

O + CCCC[n+]1ccn(C)c1.[Br-]
101 kPa, x2 = 0
Details | electrical conductivity [S/m]
288.15 K | 0.000101
298.15 K | 0.00015
308.15 K | 0.000216

CC1COC(=O)O1 (stereo unspecified) + CCCCn1cc[n+](C)c1C.O=S(=O)([N-]S(=O)(=O)C(F)(F)F)C(F)(F)F
101.3 kPa, x2 = 0
Details | viscosity [mPa·s]
288.15 K | 3.063
293.15 K | 2.746
343.15 K | 1.213

O + CCCO + CCCCCCCCCCCCOS(=O)(=O)[O-].[Na+]
Details | electrical conductivity [S/m]
298 K, 100 kPa, frequency 0.001 MHz, x2 = 0, x1 = 1 | 0.0005

CCC[N+]1(C)CCCC1.O=S(=O)([N-]S(=O)(=O)C(F)(F)F)C(F)(F)F + CCC[N+]1(C)CCCC1.N#C[N-]C#N
101 kPa, x2 = 0
Details | electrical conductivity [S/m] | viscosity [mPa·s]
313.15 K | 0.678 | 34.4
353.15 K | – | 11.6

CCC[N+]1(C)CCCC1.O=S(=O)([N-]S(=O)(=O)C(F)(F)F)C(F)(F)F + CCC[N+](C)(C)C.O=S(=O)([N-]S(=O)(=O)C(F)(F)F)C(F)(F)F
Details | viscosity [mPa·s]
298.15 K, 101.3 kPa, x2 = 0 | 61

CC[n+]1ccn(C)c1.N#C[N-]C#N + CCO
viscosity [mPa·s]
Details | 298.15 K | 303.15 K | 308.15 K | 313.15 K | 318.15 K | 323.15 K | 328.15 K | 343.15 K
100 kPa, x1 = 0.0997 | 1.85 | 1.71 | 1.56 | 1.44 | 1.33 | 1.23 | – | –
100 kPa, x1 = 0.196 | 2.7 | 2.47 | 2.25 | 2.07 | 1.9 | 1.75 | – | –
100 kPa, x1 = 0.3001 | 3.66 | 3.31 | 3.02 | 2.76 | 2.53 | 2.33 | – | –
100 kPa, x1 = 0.3945 | 4.62 | 4.16 | 3.78 | 3.45 | 3.16 | 2.9 | – | –
100 kPa, x1 = 0.4997 | 5.82 | 5.23 | 4.72 | 4.29 | 3.92 | 3.59 | – | –
100 kPa, x1 = 0.5993 | 7.11 | 6.35 | 5.71 | 5.16 | 4.7 | 4.29 | – | –
100 kPa, x1 = 0.7013 | 8.69 | 7.71 | 6.89 | 6.19 | 5.61 | 5.1 | – | –
100 kPa, x1 = 0.8014 | 10.45 | 9.21 | 8.17 | 7.3 | 6.57 | 5.95 | – | –
100 kPa, x1 = 0.8929 | 11.97 | 10.48 | 9.25 | 8.23 | 7.37 | 6.65 | – | –
100 kPa, x1 = 1 | 13.09 | 11.39 | 10 | 8.86 | 7.92 | 7.13 | – | –
101 kPa, x2 = 0 | – | – | – | 10.07 | – | – | 7.26 | –
101 kPa, x2 = 0.1981 | – | – | – | – | – | – | – | 4.25
101 kPa, x2 = 0.3596 | – | – | – | 5.68 | – | – | 4.29 | –
101 kPa, x2 = 0.6028 | 4.42 | – | – | – | – | – | – | –
101 kPa, x2 = 0.7678 | 2.72 | – | – | – | – | – | – | –
